From ChEMBL document CHEMBL1201862, “PubChem BioAssay data set” (2004)
Values joined by “and” are separate entries in the source; they are usually repeats but may differ in a detail not shown here. Identical values can stand only once. Active and inactive are the calls of the source.

Target: Cytochrome P450 3A4 (Homo sapiens, UniProt P08684);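 note: CYP3A4 tested as one member of a cytochrome P450 panel screen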
Details: not given

Chain of Cytochrome P450 3A4 (P08684 whole entry): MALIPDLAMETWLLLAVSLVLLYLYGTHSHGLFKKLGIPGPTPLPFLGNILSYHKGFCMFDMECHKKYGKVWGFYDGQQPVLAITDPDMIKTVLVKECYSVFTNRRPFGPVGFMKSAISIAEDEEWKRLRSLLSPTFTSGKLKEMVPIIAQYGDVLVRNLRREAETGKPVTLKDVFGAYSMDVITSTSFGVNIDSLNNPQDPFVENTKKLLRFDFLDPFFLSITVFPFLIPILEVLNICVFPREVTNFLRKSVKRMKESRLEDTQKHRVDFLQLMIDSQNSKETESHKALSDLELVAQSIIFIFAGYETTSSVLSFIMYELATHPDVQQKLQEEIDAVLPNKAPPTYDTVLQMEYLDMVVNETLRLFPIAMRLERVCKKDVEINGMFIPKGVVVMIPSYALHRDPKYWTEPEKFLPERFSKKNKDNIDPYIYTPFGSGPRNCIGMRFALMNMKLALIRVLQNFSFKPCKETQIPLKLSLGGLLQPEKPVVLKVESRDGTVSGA

Row | AC50 | Compound
1 | 28.2 µM (inconclusive) | CCC(c1nnnn1CCOC)N1CCN(C(=O)c2ccco2)CC1 (stereo not given)
2 | 7.94 µM (inconclusive) | CCNc1ncc2nc(-c3cc(F)cc(F)c3)c(=O)n(CCOC)c2n1
3 | 3.98 µM (inconclusive) | CO[C@H]1COC(=O)[C@@H](C)COC(=O)[C@@H](COCc2ccccc2)NC(=O)C/C=C\[C@H]1C
4 | 8.91 µM (inconclusive) | CC(C)CC(=O)N1CCC(O)(CS(=O)(=O)Cc2ccc(Cl)cc2)CC1
5 | 5.01 µM (inconclusive) | CC1=C/C(=N/O)C([C@H]2C=C(C)CC(C)(C)[C@@H]2O)C(C)(C)C1 (stereo not given in full)

Target: Cytochrome P450 2C9 (Homo sapiens, UniProt P11712)
Sequence (P11712 whole entry): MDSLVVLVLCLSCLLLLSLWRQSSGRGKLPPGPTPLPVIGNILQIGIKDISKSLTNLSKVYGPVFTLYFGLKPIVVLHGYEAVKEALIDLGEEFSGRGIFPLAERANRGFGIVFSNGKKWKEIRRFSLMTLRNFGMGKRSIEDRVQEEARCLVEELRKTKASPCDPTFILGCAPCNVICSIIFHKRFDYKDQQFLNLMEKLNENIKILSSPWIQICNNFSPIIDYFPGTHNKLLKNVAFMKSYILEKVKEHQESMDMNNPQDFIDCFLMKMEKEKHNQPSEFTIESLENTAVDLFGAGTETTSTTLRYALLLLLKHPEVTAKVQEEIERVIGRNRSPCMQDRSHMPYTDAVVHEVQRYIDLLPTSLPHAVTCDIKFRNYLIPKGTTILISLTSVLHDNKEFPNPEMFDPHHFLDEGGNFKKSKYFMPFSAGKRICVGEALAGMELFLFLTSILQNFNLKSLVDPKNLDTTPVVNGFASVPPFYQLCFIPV
Details: not given

Row | AC50 | Compound
6 | 1.12 µM (inconclusive) | CNC(=O)COC(=O)c1cc2c(C)nn(-c3ccc(F)cc3)c2s1
7 | 25.1 µM (inconclusive) | COC(=O)[C@@]1(Cc2ccccc2)[C@H]2c3cc(C(=O)N(C)C)n(CCN4CNCC4=O)c3C[C@H]2CN1C(=O)c1ccccc1
8 | 28.2 µM (inconclusive) | COc1ccc(-n2nnnc2-c2cn(C)nc2C(F)(F)F)cc1
9 | 0.00891 µM (inconclusive) | Cc1ccccc1NC(=O)CSc1nc(N2CCCCC2)nc(N2CCCCC2)n1
10 | 15.8 µM (inconclusive) | CC(=O)c1c(O)cc(=O)n(-c2ccccc2)c1-c1ccc(C)cc1
11 | 2.51 µM (inconclusive) | COc1ccc(C(=O)Nc2cccc(/C(C)=N/NC(=O)c3ccc([N+](=O)[O-])cc3)c2)cc1OC

Further lines, the compound ahead of its results:

Row | Compound | AC50
12 | NC(=O)COc1c(F)cc(SCCNS(=O)(=O)c2ccccc2)cc1F | 31.6 µM (inconclusive)
13 | COc1ccc2c(c1)CCc1c(C(=O)N3CCCCCC3)noc1-2 | 25.1 µM (inconclusive)
14 | CCC(C)NCc1ccc(C(=O)OC)o1 (stereo not given) | 0.447 µM (inconclusive)
15 | Cc1nnc(NC(=O)CCC(=O)NCc2cccs2)s1 | 31.6 µM (inconclusive)
16 | CCc1c(C(=O)NCc2ccc3c(c2)OCO3)[nH]c(C)c1C(C)=O | 10 µM (inconclusive)
17 | CC(=O)Oc1ccccc1C(=O)Oc1ccccc1C(=O)O [DIPLOSALSALATE] | 15.8 µM (inconclusive)

Test system: not listed separately
Assay: NIH3T3 cell viability loss – ATP luminescence, mouse fibroblasts, counter-screen, dose response (AID 2010);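 note: cells exposed to compound for about 90 hours before reading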
Format: functional, cell-based
Details: not given

Row | Compound | EC50
18 | Cc1ccc(NC(=S)N2CCN(CCN3C(=O)c4cccc5cccc(c45)C3=O)CC2)cc1 | > 60 µM (not active)

Target: Cytochrome P450 2C19 (Homo sapiens, UniProt P33261)
Sequence (P33261 whole entry): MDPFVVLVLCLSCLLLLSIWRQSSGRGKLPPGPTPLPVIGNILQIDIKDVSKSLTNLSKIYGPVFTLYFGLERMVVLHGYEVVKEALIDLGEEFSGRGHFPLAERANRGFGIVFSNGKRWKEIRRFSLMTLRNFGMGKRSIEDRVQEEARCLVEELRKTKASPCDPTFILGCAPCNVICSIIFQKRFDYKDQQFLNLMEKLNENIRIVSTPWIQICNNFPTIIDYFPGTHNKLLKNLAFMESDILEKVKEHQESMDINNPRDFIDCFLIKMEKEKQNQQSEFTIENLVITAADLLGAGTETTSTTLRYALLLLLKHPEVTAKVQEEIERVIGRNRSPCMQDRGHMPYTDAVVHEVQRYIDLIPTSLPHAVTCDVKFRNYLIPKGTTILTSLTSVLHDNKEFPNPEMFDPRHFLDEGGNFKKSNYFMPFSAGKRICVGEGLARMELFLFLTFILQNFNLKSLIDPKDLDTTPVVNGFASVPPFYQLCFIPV
Assay: Cytochrome panel assay with activity outcomes. Panel member name: p450-cyp2c19 Compounds with AC50 equal or less than 10 uM are considered active
Format: functional
Details: not given

Row | AC50 | Compound
19 | inconclusive | NCCC(=O)NCCc1c[nH]cn1 [CARCININE]

Same assay, conditions: read-out: AC50

Row | AC50 | Compound
20 | 39.8 µM (inconclusive) | CNC(=O)COC(=O)c1cc2c(C)nn(-c3ccc(F)cc3)c2s1
21 | 15.8 µM (inconclusive) | Cc1ccc(-c2cc(-c3nnc(SCC(=O)NC(C)C(C)C)n3N)c3ccccc3n2)cc1 (stereo not given)
22 | 31.6 µM (inconclusive) | COC(=O)[C@@]1(Cc2ccccc2)[C@H]2c3cc(C(=O)N(C)C)n(CCN4CNCC4=O)c3C[C@H]2CN1C(=O)c1ccccc1
23 | 31.6 µM (inconclusive) | CNc1nc(-c2ccccc2C(F)(F)F)nc2ccccc12
24 | 28.2 µM (inconclusive) | O=C(NNC(=O)c1cccnc1)Nc1cccc2ccccc12
25 | 1 µM (inconclusive) | CN(C)c1nc(NCc2ccccc2)nc(N/N=C/c2ccc(Cl)cc2Cl)n1
26 | 31.6 µM (inconclusive) | COc1ccc(C(=O)Nc2cccc(/C(C)=N/NC(=O)c3ccc([N+](=O)[O-])cc3)c2)cc1OC

More lines, now with the values behind:

Row | Compound | AC50
27 | CC1CN(C(=S)NC(=O)c2ccc([N+](=O)[O-])cc2)CC(C)O1 (stereo not given) | 31.6 µM (inconclusive)
28 | O=C(CNS(=O)(=O)c1ccc(Br)s1)N1CCC(N2CCCCC2)CC1 | 20 µM (inconclusive)
29 | CCC(C)NCc1ccc(C(=O)OC)o1 (stereo not given) | 15.8 µM (inconclusive)
30 | O=C(c1cnccn1)N1CCC2(CCCN(C(c3ccccc3)c3ccccc3)C2)CC1 | 25.1 µM (inconclusive)
31 | Cc1ccc(NC(=S)N2CCN(CCN3C(=O)c4cccc5cccc(c45)C3=O)CC2)cc1 | 15.8 µM (inconclusive)
32 | Cc1nnc(NC(=O)CCC(=O)NCc2cccs2)s1 | 22.4 µM (inconclusive)
33 | C/C(Cn1nc([N+](=O)[O-])cc1C)=N\NC(=O)c1ccc(O)cc1O | 7.08 µM (inconclusive)

Target: T1, Heat shock factor protein 1 (Mus musculus, UniProt P38532)
T1 sequence (P38532 whole entry): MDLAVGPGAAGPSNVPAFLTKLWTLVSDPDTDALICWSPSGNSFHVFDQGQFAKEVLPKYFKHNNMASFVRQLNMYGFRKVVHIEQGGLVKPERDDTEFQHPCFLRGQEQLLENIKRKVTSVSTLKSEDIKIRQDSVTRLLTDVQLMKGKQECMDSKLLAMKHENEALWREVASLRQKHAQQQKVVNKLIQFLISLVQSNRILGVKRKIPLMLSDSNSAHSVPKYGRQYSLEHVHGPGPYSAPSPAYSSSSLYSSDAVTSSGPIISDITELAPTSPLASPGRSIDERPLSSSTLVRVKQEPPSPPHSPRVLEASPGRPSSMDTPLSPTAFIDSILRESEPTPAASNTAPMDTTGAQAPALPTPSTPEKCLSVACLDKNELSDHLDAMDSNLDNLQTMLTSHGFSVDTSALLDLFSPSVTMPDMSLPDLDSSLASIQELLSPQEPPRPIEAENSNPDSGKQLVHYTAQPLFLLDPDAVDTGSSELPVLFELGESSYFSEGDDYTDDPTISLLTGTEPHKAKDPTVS
Assay: decrease of HSF1-responsive luciferase luminescence – cell-based, NIH3T3, dose retest, confirmation (AID 2382);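 note: NIH3T3 fibroblasts with HSF1-driven luciferase reporter stressed by proteasome inhibitor MG132; luminescence from HSF1-driven luciferase expression after 8 hours of MG132 stress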
Format: functional
Details: not given

Row | EC50 | Compound
34 | > 195 µM (not active) | CCOC(=O)C1CCCN(CCC(=O)Nc2cc(OC)ccc2OC)C1 (stereo not given)
35 | > 195 µM (not active) | CN=C(S)N(CCc1c(C)[nH]c2ccc(F)cc12)Cc1cccnc1
36 | > 195 µM (not active) | C=CCC1(C(=O)NCCO)CCN(C(=O)OC(C)(C)C)CC1
37 | > 195 µM (not active) | COc1ccc(N2CCN(C(CNC(=O)C(=O)NCc3ccncc3)c3ccco3)CC2)cc1 (stereo not given)

Target: T2, Cytochrome P450 1A2 (Homo sapiens, UniProt P05177);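 note: PubChem cytochrome P450 panel assay, CYP1A2 panel member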
T2 sequence (P05177 whole entry): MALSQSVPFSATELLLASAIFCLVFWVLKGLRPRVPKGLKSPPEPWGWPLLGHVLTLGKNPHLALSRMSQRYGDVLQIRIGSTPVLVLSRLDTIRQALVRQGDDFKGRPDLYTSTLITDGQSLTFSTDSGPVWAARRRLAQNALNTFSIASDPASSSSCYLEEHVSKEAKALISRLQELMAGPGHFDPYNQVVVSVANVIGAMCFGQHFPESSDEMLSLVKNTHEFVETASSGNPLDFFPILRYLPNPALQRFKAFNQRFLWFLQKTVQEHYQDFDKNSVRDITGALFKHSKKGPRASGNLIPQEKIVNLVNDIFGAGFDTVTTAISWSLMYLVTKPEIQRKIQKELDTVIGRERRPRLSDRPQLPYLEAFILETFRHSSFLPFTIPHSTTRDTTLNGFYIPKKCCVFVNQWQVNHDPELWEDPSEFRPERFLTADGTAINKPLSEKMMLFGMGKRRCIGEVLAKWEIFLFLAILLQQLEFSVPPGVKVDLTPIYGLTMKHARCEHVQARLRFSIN
Details: not given

Row | AC50 | Compound
38 | 31.6 µM (inconclusive) | Cc1ccc(-c2cc(-c3nnc(SCC(=O)NC(C)C(C)C)n3N)c3ccccc3n2)cc1 (stereo not given)
39 | 5.01 µM (inconclusive) | COC(=O)[C@@]1(Cc2ccccc2)[C@H]2c3cc(C(=O)N(C)C)n(CCN4CNCC4=O)c3C[C@H]2CN1C(=O)c1ccccc1
40 | 25.1 µM (inconclusive) | COc1ccc(-n2nnnc2-c2cn(C)nc2C(F)(F)F)cc1
41 | 14.1 µM (inconclusive) | O=C(NNC(=O)c1cccnc1)Nc1cccc2ccccc12
42 | 3.55 µM (inconclusive) | Cc1ccccc1NC(=O)CSc1nc(N2CCCCC2)nc(N2CCCCC2)n1

Further lines, the compound ahead of its results:

Row | Compound | AC50
43 | NC(=O)COc1c(F)cc(SCCNS(=O)(=O)c2ccccc2)cc1F | 31.6 µM (inconclusive)
44 | CC1CN(C(=S)NC(=O)c2ccc([N+](=O)[O-])cc2)CC(C)O1 (stereo not given) | 12.6 µM (inconclusive)
45 | O=C(c1cnccn1)N1CCC2(CCCN(C(c3ccccc3)c3ccccc3)C2)CC1 | 20 µM (inconclusive)
46 | Cc1ccc(NC(=S)N2CCN(CCN3C(=O)c4cccc5cccc(c45)C3=O)CC2)cc1 | 20 µM (inconclusive)
47 | C/C(Cn1nc([N+](=O)[O-])cc1C)=N\NC(=O)c1ccc(O)cc1O | 25.1 µM (inconclusive)
48 | CC(=O)Oc1ccccc1C(=O)Oc1ccccc1C(=O)O [DIPLOSALSALATE] | 12.6 µM (inconclusive)

Target: Cytochrome P450 2D6 (Homo sapiens, UniProt P10635);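 note: CYP2D6 member of a cytochrome P450 panel assay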
Sequence (P10635 whole entry): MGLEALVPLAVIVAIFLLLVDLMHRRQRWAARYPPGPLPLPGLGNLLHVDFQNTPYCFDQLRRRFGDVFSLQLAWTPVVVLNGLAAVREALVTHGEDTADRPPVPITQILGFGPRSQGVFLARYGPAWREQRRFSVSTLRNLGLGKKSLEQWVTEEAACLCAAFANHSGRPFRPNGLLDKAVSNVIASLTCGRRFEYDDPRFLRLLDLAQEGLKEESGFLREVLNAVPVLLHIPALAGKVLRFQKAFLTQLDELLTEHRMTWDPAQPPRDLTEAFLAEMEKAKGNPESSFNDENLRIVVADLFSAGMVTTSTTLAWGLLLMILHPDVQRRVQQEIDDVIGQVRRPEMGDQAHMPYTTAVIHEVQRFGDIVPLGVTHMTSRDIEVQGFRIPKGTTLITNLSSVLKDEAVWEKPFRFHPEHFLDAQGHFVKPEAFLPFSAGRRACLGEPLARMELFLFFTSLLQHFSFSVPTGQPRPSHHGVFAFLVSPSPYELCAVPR
Details: not given

Row | AC50 | Compound
49 | 20 µM (inconclusive) | CNc1nc(-c2ccccc2C(F)(F)F)nc2ccccc12
50 | 0.00501 µM (inconclusive) | CC(=O)c1c(O)cc(=O)n(-c2ccccc2)c1-c1ccc(C)cc1

Continued, compound first:

Row | Compound | AC50
51 | COc1ccc2c(c1)CCc1c(C(=O)N3CCCCCC3)noc1-2 | 15.8 µM (inconclusive)
52 | CCC(C)NCc1ccc(C(=O)OC)o1 (stereo not given) | 14.1 µM (inconclusive)
53 | CCc1c(C(=O)NCc2ccc3c(c2)OCO3)[nH]c(C)c1C(C)=O | 20 µM (inconclusive)
54 | NCCC(=O)NCCc1c[nH]cn1 [CARCININE] | 31.6 µM (inconclusive) and 10 µM (inconclusive)

Test system: not listed separately
Assay: Trypanosoma cruzi growth suppression in host cells – NIH3T3 host cells, beta-gal luminescence, confirmation (AID 2044);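 note: intracellular parasites grown in NIH/3T3 mouse fibroblasts as host cells; luminescent beta-galactosidase reporter signal from transgenic T. cruzi replicating inside host cells; inhibitors lower the luminescence signal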
Format: functional, cell-based
Details: not given

Row | Compound | EC50
55 | Cc1ccc(NC(=S)N2CCN(CCN3C(=O)c4cccc5cccc(c45)C3=O)CC2)cc1 | 0.855 µM (active)
